Assay: gradient 5% acetonitrile 3 min, to 50% in 2 min, to 85% in 15 min, held 3 min, 100 µL/min
Settings: column: Zorbax Extend-C18 2.1 x 50 mm; eluents: water / acetonitrile, 0.1% formic acid
Outline: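 Data were gathered over 3 months by HPLC coupled to a quadrupole time-of-flight mass spectrometer, operated in positive and negative ionization mode. Mixtures of ~100 pure standards ran on a Zorbax Extend-C18 column (2.1 × 50 mm, 1.8 μm) at 100 μL/min, with water and acetonitrile each containing 0.1% formic acid and dead and dwell volumes of 40 μL and 900 μL. Retention time was read from adduct peaks picked by computer and checked manually.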

| RP-LC retention time | SMILES |
| --- | --- |
| 922 s | COc1cccc(CC(=O)N2CCC3(CC2)N=C(c2ccc(Cl)cc2)NO3)c1 |
| 774 s | Cc1ccc(NC(=O)N2CCC(c3cc(N)on3)CC2)cc1Cl |
| 853 s | CCc1ccc(CNC(=O)C2CCN(C(=O)c3ncn4c3COC(c3ccc(C)cc3)C4)CC2)cc1 (stereo not drawn) |
| 623 s | CCNC(=O)CCc1cc2ccccc2[nH]c1=O |
| 1020 s | O=C(/C=C/c1ccccc1)NC(NC(=S)Nc1cccc2cccnc12)C(Cl)(Cl)Cl (stereo not drawn) |
| 652 s | COCCCNC(=O)C1CCCN(C(=O)c2[nH]c(C)cc2C)C1 (stereo not drawn) |
| 852 s | Cc1ccc(C)c2sc(NC(=O)c3cccc(N4C(=O)CCC4=O)c3)nc12 |
| 1040 s | O=S(=O)(Cc1nc(-c2ccc(Br)cc2)no1)c1ccccc1 |
| 673 s | Cc1ccccc1NC(=O)C1(C)Oc2cccnc2NC1=O (stereo not drawn) |
| 793 s | O=C(C1CCCN(c2nc3ccccc3n3cccc23)C1)N1CCN(c2ccccc2)CC1 (stereo not drawn) |
| 793 s | CCn1cc(-c2nc(CC(=O)NCc3ccco3)cs2)c2cccnc21 |
| 654 s | CN(C)C(=O)c1ccc2c(c1)N(CC(=O)Nc1ccc(F)cc1)C(=O)CO2 |
| 650 s | CC(C)C(NC(=O)c1ccco1)c1nc(-c2ccc3c(c2)ncn3C)no1 (stereo not drawn) |
| 996 s | Cc1ccc(C)c(Nc2c(-c3ccc(N(C)C)cc3)nc3ncccn23)c1 |
| 891 s | Cc1ccc(N2CCC(NC(=O)c3cccc(F)c3)C2=O)cc1C (stereo not drawn) |
| 957 s | O=C(c1ccc(Cl)cc1)N1CCN(c2ccc([N+](=O)[O-])c3ncccc23)CC1 |
| 1000 s | CCC(c1cccs1)N1C(=O)[C@H]2CN(S(=O)(=O)c3ccccc3Cl)C[C@H]2C1=O (stereo partly drawn) |
| 794 s | COc1cc(OC)cc(C(=O)N2CCN(c3cc(-c4cccs4)[nH]n3)CC2)c1 |
| 931 s | CCOCCOC(=O)C1=C(C)NC2=C(C(=O)C(C(=O)OC)C(C)C2)C1c1cccc(Cl)c1 (stereo not drawn) |
| 1050 s | Cc1ccccc1-c1cc2c(=O)n(Cc3nc(-c4ccc5c(c4)OCO5)no3)ccn2n1 |
| 810 s | Cc1nnc(-c2cc(C)n(CC(=O)Nc3ccc(Cl)cc3C)c2C)o1 |
| 988 s | Cc1ccc(C(=O)Nc2ccc(OCc3nnc(-c4ccccc4)o3)cc2)s1 |
| 729 s | COC(=O)c1scc(-c2ccccc2)c1S(=O)(=O)N1CCN(c2ccccn2)CC1 |
| 872 s | COc1ccc(NC(=O)Cn2c(=O)n(-c3ccc(C)cc3)c3ncccc32)c(OC)c1 |
| 797 s | COc1ccc(-c2ccnc3nc(C4CC4)nn23)c(F)c1 |

| RP-LC retention time | SMILES |
| --- | --- |
| 1330 s | O=C(NCCC1=CCCCC1)C1CCN(c2ncccc2-c2nc(-c3ccc(Cl)cc3)no2)CC1 |
| 1000 s | Cc1cc(OCC(=O)NCc2ccco2)nc(-c2ccc(Cl)cc2)n1 |
| 880 s | COc1ccc2[nH]cc(CCNC(=O)c3cc(S(=O)(=O)N4CCSCC4)ccc3Cl)c2c1 |
| 1070 s | Cc1nn(C(C)C(=O)NCCc2ccccc2)c(=O)c2c(-n3cccc3)n(-c3ccccc3)nc12 (stereo not drawn) |
| 831 s | Cc1ccc(NC(=O)N2CCC(N3CCN(Cc4ccc(F)cc4)C(=O)C3=O)CC2)cc1Cl |
| 608 s | CCC(C)NC(=O)C1CCN(c2cncnc2N2CCCC2)CC1 (stereo not drawn) |
| 581 s | CCOc1ccccc1NC(=O)N1CCN(CCNC(=O)c2ccc3c(c2)OCO3)CC1 |
| 683 s | CC(C)(C)NC(=O)NC1CCN(C(=O)c2ccccc2)C1 (stereo not drawn) |
| 600 s | CN1CCN(C(=O)c2c3c(nc4ccccc24)C(=O)N(C2CCCCC2)C3)CC1 |
| 808 s | O=C(Nc1cccc2c1CCCC2)C1CCN(S(=O)(=O)c2ccc3[nH]c(=O)ccc3c2)CC1 |
| 825 s | CCN(Cc1ccccc1)C(=O)CN1C(=O)CCCc2cc(S(=O)(=O)N3CCOCC3)ccc21 |
| 952 s | O=C(NCc1ccc(-c2noc(-c3cc(F)cc(F)c3)n2)s1)C1CC1 |
| 642 s | Cn1nc(CN2CCOCC2)c2c1CCN(S(=O)(=O)c1cc(F)cc(F)c1)C2 |
| 803 s | Cc1cccc(CSc2nnc(CNC(=O)c3ccc(S(=O)(=O)N(C)C)cc3)o2)c1 |
| 646 s | Cc1sc2cc(C(=O)N3CCCC3)[nH]c2c1CN1CCCCC1 |
| 718 s | CCOC(=O)CNC(=O)N1CCCN(C2=NS(=O)(=O)C(c3ccccc3)=C2C)CC1 |
| 1290 s | Cc1sc2ncnc(N3CCCC(C)C3)c2c1C(=O)Nc1ccc(Cl)cc1 (stereo not drawn) |
| 986 s | O=C(COc1ccccc1F)N1CCC(Oc2nc3ccccc3s2)CC1 |
| 874 s | CCOC(=O)c1ccc(-n2ccc3nc(C)c(C(=O)OC)cc3c2=O)cc1 |
| 635 s | Cc1nc(-c2ccc(C(=O)N3CCOCC3)cc2)no1 |
| 555 s | Cc1cc(C(=O)N2CC(c3nc4ccccc4[nH]3)C2)no1 |
| 620 s | CCc1ccc2c(c1)cc(S(=O)(=O)c1ccccc1)c(=O)n2CC(=O)N1CCCCC1 |
| 1050 s | Cc1oc(-c2ccc(C(=O)NCCc3ccco3)cc2)nc1CN1CCc2ccccc21 |
| 1010 s | Cc1nnc(-c2ccc3ccn(CC(=O)NCc4ccccc4)c3c2)o1 |

Continued, compound first:

| SMILES | RP-LC retention time |
| --- | --- |
| O=C(NCCc1c[nH]c2ccccc12)C(=O)c1cn(CC(=O)N2CCOCC2)c2ccccc12 | 832 s |
| O=C(Cc1csc(Nc2ncccn2)n1)N1CCN(c2cccc(Cl)c2Cl)CC1 | 838 s |
| CCC(=O)N1CCc2cc(N3CC(C(=O)NCc4ccc(F)cc4)CC3=O)ccc21 (stereo not drawn) | 725 s |
| CCc1cnn2c(NCc3ccc[n+]([O-])c3)cc(N3CCCC[C@H]3CCO)nc12 | 637 s |
| OC(CN1CCN(c2ccccn2)CC1)c1ccc2c(c1)OCO2 (stereo not drawn) | 539 s |
| CC(=O)Nc1cccc(N2CC(C(=O)NCc3cccc(Br)c3)CC2=O)c1 (stereo not drawn) | 703 s |
| O=C(C1CCN(c2ccc(Sc3cccc(F)c3)nn2)CC1)N1CCN(c2ccccn2)CC1 | 626 s |
| O=C(C1CCN(S(=O)(=O)c2cc(-c3noc(C4CCC4)n3)cs2)CC1)N1CCCCC1 | 971 s |
| CCn1nnc2ccc(-c3noc(-c4ccc(NC(C)=O)cc4)n3)cc21 | 807 s |
| Cc1cccc2c1NC(=O)C2(O)CC(=O)c1ccc(C(C)C)cc1 (stereo not drawn) | 860 s |
| COc1cc(Cc2nc(-c3cccc(-c4ccnn4C)c3)no2)cc(OC)c1 | 904 s |
| CCN(CC)c1ccc(Nc2nc(-c3ccc(Cl)cc3)cs2)cc1 | 791 s |
| COc1ccc(NC(=O)N2CCN(c3nc4ccccc4n3C)CC2)c(OC)c1 | 609 s |
| Cc1cc(N2CCN(C(=O)Nc3ccc(C)c(Cl)c3)CC2)nc(N2CCCC2)n1 | 747 s |
| CCCN1CCCCc2cc(C(=O)NC(C)(C)C)sc21 | 1200 s |
| COc1cccc(N2CC(C(=O)Nc3nnc(-c4csc(C)n4)o3)CC2=O)c1 (stereo not drawn) | 817 s |
| COc1ccc(OC)c(CNC(=O)c2ccc3c(c2)N(C)C(=O)c2ccccc2O3)c1 | 852 s |
| O=C(Nc1cnc(-c2ccc(F)cc2)nc1)C1CC1 | 829 s |
| O=S(=O)(c1cccn2c(SCc3cc(F)cc(F)c3)nnc12)N1CCCC1 | 845 s |
| Cn1c(=O)c2ccnn2c2ccc(C(=O)NCc3ccccc3)cc21 | 665 s |

| SMILES | RP-LC retention time |
| --- | --- |
| CS(=O)(=O)N1CCC(OC2CCN(C(=O)NCc3ccccc3)CC2)CC1 | 704 s |
| CN1C(=O)C(C)(C)c2cc(S(=O)(=O)N3CCN(c4ccccn4)CC3)ccc21 | 633 s |
| O=C(Cn1c(=O)c(=O)n(Cc2ccncc2)c2ncccc21)NC1CCCCCCC1 | 646 s |
| Cc1ccc(-c2nnc(SCc3cccc(Cl)c3)o2)cc1 | 1210 s |
| Cc1ccc(CNc2nnc(-c3nc(C4CC4)no3)c3ccccc23)cc1 | 958 s |
| CC(C)c1noc(-c2ccnc(-n3cnc(C(=O)N(C)C4CCCCC4)c3)c2)n1 | 622 s |
| Cn1cc(C(=O)NC2CCCCC2)c2cccnc21 | 726 s |
| O=C(Nc1cccc(-c2nnc3n2CCCC3)c1)C1CCCCC1 | 699 s |
| O=S(=O)(c1ccc2c(c1)CCCC2)N1CCN(c2ccc(-c3ccco3)nn2)CC1 | 903 s |
| CCc1nncn1C1CCN(S(=O)(=O)c2cc(C)ccc2C)CC1 | 752 s |
| O=C(NCCNc1cc(-n2cccn2)ncn1)c1c[nH]c2ccccc12 | 646 s |
| CS(=O)(=O)N1CCC(C(=O)Nc2nnc(-c3ccc4c(c3)OCCO4)o2)CC1 | 646 s |
| CCC1Oc2ccc(S(=O)(=O)N3CCC(C(=O)Nc4ccccc4C)CC3)cc2NC1=O (stereo not drawn) | 814 s |
| O=C(Nc1cccc2cccnc12)C1CCN(c2ccc(-n3cccn3)nn2)CC1 | 745 s |
| CCC(=O)N(C)CCc1noc(COc2cccc(C(F)(F)F)c2)n1 | 842 s |
| COCCN1C(=O)CCc2cc(NS(=O)(=O)c3ccc(C)c(Cl)c3)ccc21 | 851 s |
| Cc1cc(OCc2nc(C)c(C(=O)Nc3nc(-c4ccccc4)cs3)s2)ccc1Cl | 1330 s |
| Cc1ccc(NC(=O)N2CCC(n3cnnc3C3CC3)C2)c(Cl)c1 (stereo not drawn) | 663 s |
| CCOc1ccc(CNC(=O)c2sccc2S(=O)(=O)N(C)c2ccc(OCC)cc2)cc1 | 1170 s |
